Data: ChEMBL document CHEMBL1201862, “PubChem BioAssay data set” (2004)
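Each compound was tested at five concentrations against cells in 96-well plates for 48 hours. The concentration for 50% growth inhibition is given as GI50.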 Activity calls are given as the source filed them. Cut-off read from the data, not from the text of the source: active = GI50 up to about 1.1 µM and inactive = higher.

Experiments:
Assay in all cases: NCI-60 cell line screen, 48 h
ACHN = system: ACHN
BT-549 = system: BT-549
CAKI-1 = system: CAKI-1
HCC 2998 = system: HCC 2998
HCT-116 = system: HCT-116
IGROV-1 = system: IGROV-1
LOX IMVI = system: LOX IMVI
MCF7 = system: MCF7
MDA-MB-435 = system: MDA-MB-435
Malme-3M = system: Malme-3M
NCI-H23 = system: NCI-H23
OVCAR-5 = system: OVCAR-5
OVCAR-8 = system: OVCAR-8
RXF 393 = system: RXF 393
SK-MEL-28 = system: SK-MEL-28
SK-MEL-2 = system: SK-MEL-2
SN12C = system: SN12C
SNB-75 = system: SNB-75
UO-31 = system: UO-31
CCRF-CEM = system: CCRF-CEM

Measured: GI50

CNC/C(Cl)=N/S(=O)(=O)c1ccc(C)cc1
inactive: ACHN 15.8 µM | BT-549 16.3 µM | CAKI-1 13.2 µM | HCC 2998 4.74 µM | HCT-116 8.09 µM | IGROV-1 17.2 µM | LOX IMVI 7.16 µM | MCF7 7.94 µM | MDA-MB-435 6.15 µM | Malme-3M 9.66 µM | NCI-H23 7.83 µM | OVCAR-5 21 µM | OVCAR-8 18.9 µM | RXF 393 2.2 µM | SK-MEL-28 31.6 µM | SK-MEL-2 15 µM | SN12C 9.75 µM | SNB-75 5.18 µM | UO-31 12.1 µM

C=CCc1ccccc1C1CC2(C(=O)OC)OC1C(C(=O)OC)=C2C(=O)OC (configuration not stated)
inactive: ACHN > 10 µM | BT-549 > 10 µM | CAKI-1 > 10 µM | CCRF-CEM > 10 µM | HCC 2998 > 10 µM | HCT-116 > 10 µM | IGROV-1 > 10 µM | LOX IMVI > 10 µM | MCF7 > 10 µM | MDA-MB-435 > 10 µM | Malme-3M > 10 µM | NCI-H23 > 10 µM | OVCAR-5 > 10 µM | OVCAR-8 > 10 µM | RXF 393 > 10 µM | SK-MEL-28 > 10 µM | SK-MEL-2 > 10 µM | SN12C > 10 µM | UO-31 > 10 µM

CCc1nc(N)nc(N)c1-c1ccc(N2CCOCC2)c(N=[N+]=[N-])c1
inactive: ACHN 46 µM | BT-549 > 78.2 µM | CAKI-1 62.2 µM | CCRF-CEM 53.8 µM | HCC 2998 47.9 µM | HCT-116 18.4 µM | IGROV-1 28.2 µM | LOX IMVI 38.7 µM | MCF7 71.3 µM | MDA-MB-435 55.1 µM | NCI-H23 37.2 µM | OVCAR-5 > 100 µM | OVCAR-8 61.7 µM | RXF 393 > 83.2 µM | SK-MEL-28 > 100 µM | SK-MEL-2 > 100 µM | SN12C > 80.5 µM | SNB-75 > 92 µM | UO-31 > 100 µM

CCCCCCCCCCCCc1ccsc1-c1ccc(-c2ccc(-c3sccc3CCCCCCCCCCCC)s2)s1
inactive: ACHN > 100 µM | BT-549 > 100 µM | CAKI-1 > 100 µM | CCRF-CEM > 100 µM | HCC 2998 > 100 µM | HCT-116 > 100 µM | IGROV-1 > 100 µM | LOX IMVI > 100 µM | MCF7 > 100 µM | MDA-MB-435 > 100 µM | NCI-H23 > 100 µM | OVCAR-5 > 100 µM | OVCAR-8 > 100 µM | RXF 393 > 100 µM | SK-MEL-28 > 100 µM | SK-MEL-2 > 100 µM | SN12C > 100 µM | SNB-75 > 100 µM | UO-31 > 100 µM

C=CC(=O)N1C/C(=C\c2ccc(N(C)C)cc2)C(=O)/C(=C/c2ccc(N(C)C)cc2)C1
inactive: ACHN > 100 µM | BT-549 73.5 µM | CAKI-1 > 100 µM | HCC 2998 > 100 µM | HCT-116 40.6 µM | IGROV-1 > 100 µM | LOX IMVI 11.2 µM | MCF7 4.73 µM | MDA-MB-435 87.5 µM | Malme-3M > 100 µM | NCI-H23 > 100 µM | OVCAR-5 > 100 µM | OVCAR-8 > 100 µM | RXF 393 43.1 µM | SK-MEL-28 > 100 µM | SK-MEL-2 > 100 µM | SN12C > 100 µM | SNB-75 > 100 µM | UO-31 > 100 µM

Nc1ccccc1SC(C[N+](=O)[O-])c1ccc2c(c1)OCO2 (configuration not stated)
inactive: ACHN 6.46 µM | BT-549 4.22 µM | CAKI-1 13.7 µM | HCC 2998 1.78 µM | HCT-116 1.81 µM | IGROV-1 1.51 µM | LOX IMVI 1.75 µM | MCF7 2.99 µM | MDA-MB-435 2.32 µM | Malme-3M 15.7 µM | NCI-H23 3.08 µM | OVCAR-5 3.65 µM | OVCAR-8 2.78 µM | RXF 393 1.8 µM | SK-MEL-28 3.4 µM | SK-MEL-2 14.6 µM | SN12C 3.37 µM | SNB-75 2.34 µM | UO-31 1.87 µM

COC(=O)c1c(O)ccc2c1c1c(n2CCc2ccccc2)C(=O)c2ccccc2C1=O
inactive: ACHN 11.9 µM | BT-549 15.4 µM | CAKI-1 13.1 µM | CCRF-CEM 12.8 µM | HCC 2998 2.48 µM | HCT-116 10.9 µM | IGROV-1 11.9 µM | LOX IMVI 15.7 µM | MCF7 9.02 µM | MDA-MB-435 7.03 µM | Malme-3M 12.1 µM | NCI-H23 11.6 µM | OVCAR-5 20.2 µM | OVCAR-8 8.18 µM | RXF 393 13.3 µM | SK-MEL-28 16 µM | SK-MEL-2 15.1 µM | SN12C 12 µM | UO-31 10.8 µM

O=c1c(=O)c2cscc2c1=O
inactive: ACHN 4.69 µM | BT-549 4.85 µM | CAKI-1 4.4 µM | HCC 2998 2.92 µM | HCT-116 4.9 µM | IGROV-1 4.66 µM | LOX IMVI 4.92 µM | MCF7 6.24 µM | MDA-MB-435 4.65 µM | Malme-3M 4.39 µM | NCI-H23 5.61 µM | OVCAR-5 4.74 µM | OVCAR-8 6.55 µM | RXF 393 4.74 µM | SK-MEL-28 4.53 µM | SK-MEL-2 4.92 µM | SN12C 5.87 µM | SNB-75 4.32 µM | UO-31 4.75 µM

CC(=O)c1c(C)n(C)c2c1nnc1ccccc12
inactive: ACHN 34.4 µM | BT-549 71.3 µM | CAKI-1 35.7 µM | CCRF-CEM 54.2 µM | HCC 2998 85.5 µM | HCT-116 33.7 µM | LOX IMVI 43 µM | MCF7 26.5 µM | MDA-MB-435 61.7 µM | Malme-3M 39.5 µM | NCI-H23 37.5 µM | OVCAR-8 43.5 µM | RXF 393 40.2 µM | SK-MEL-28 > 100 µM | SK-MEL-2 > 100 µM | SN12C 40.3 µM | UO-31 3.15 µM

CCC[C@@H]1C(=O)N=C(N)N1C(=O)OCc1ccccc1
inactive: ACHN > 100 µM | BT-549 > 100 µM | CAKI-1 > 100 µM | HCC 2998 > 100 µM | HCT-116 > 100 µM | IGROV-1 > 100 µM | LOX IMVI > 100 µM | MCF7 > 100 µM | MDA-MB-435 > 100 µM | Malme-3M > 100 µM | NCI-H23 > 100 µM | OVCAR-5 > 100 µM | OVCAR-8 > 100 µM | RXF 393 > 100 µM | SK-MEL-28 > 100 µM | SK-MEL-2 > 100 µM | SN12C > 100 µM | SNB-75 > 100 µM | UO-31 > 100 µM

CCCC(=O)N(C(=O)CCC)C1=C(Cl)C(=O)c2ccccc2C1=O
inactive: ACHN 1.28 µM | BT-549 3.41 µM | CAKI-1 2.24 µM | CCRF-CEM 2.09 µM | HCC 2998 4.04 µM | HCT-116 2.72 µM | IGROV-1 5.66 µM | LOX IMVI 3.66 µM | MCF7 1.84 µM | MDA-MB-435 4.63 µM | NCI-H23 2.65 µM | OVCAR-5 7.67 µM | OVCAR-8 6.25 µM | RXF 393 2.17 µM | SK-MEL-28 3.72 µM | SK-MEL-2 4.42 µM | SN12C 13.3 µM | SNB-75 3.18 µM | UO-31 1.62 µM
